Measurements from article PMC4730229, “Benzobisthiazoles Represent a Novel Scaffold for Kinase Inhibitors of CLK Family Members” (Biochemistry, 2015).

Columns and labels:
[1] = biological target: T1, GST-CLK2cd (CLK2 catalytic domain) (Homo sapiens, UniProt P49760); assay: High-throughput screen, Kinase-Glo in vitro kinase assay; type: biochemical; conditions: compound at 10 μM; read-out: percentage of inhibition on CLK2 (primary screen)
T1 construct: cDNA encoding the CLK2 catalytic domain (CLK2cd, amino acids 140–496); made in house; host or cells: Escherichia coli BL21(DE3)-R3-lambda-PPase
Protocol: A small molecule inhibitor library consisting of 1600 compounds was obtained from LIFE Chemicals (Kiev, Ukraine). These compounds are part of the CUTE kinase collection that was predicted by in silico profiling against a panel of targets and includes potent kinase inhibitor compounds.[16] Compounds were dissolved as 10 mM stocks in DMSO and stored at room temperature, in the presence of 5% humidity and 5% oxygen in the dark in a Roylan Storage Pod system. Compounds were dispensed into white 384-well plates using the Labcyte Echo520 instrument at a final concentration of 10 μM. Next, 5 μL of 144.92 nM purified GST-CLK2cd in kinase assay buffer A was added to the compounds, incubated for 10 min at room temperature prior to addition of 5 μL of a 2 μM ATP/10 μM S6K peptide mixture, and incubated again for 60 min at room temperature. Subsequently, 10 μL of Kinase-Glo was added to the wells, and the plates were analyzed after 10 min on the Envision II multilabel plate reader (PerkinElmer). […] The percentage of inhibition is equal to 100 – [(total ATP before assay – remaining ATP in assay with compound)/(total ATP before assay – remaining ATP in assay with DMSO) × 100].

MLK1 = MLK1 (Homo sapiens, UniProt P80192); assay: Kinase profiling (radioactive filter binding); type: biochemical; conditions: 1 uM compound
Protocol: (§1) 3A5 and 5E4 were sent to the International Centre for Kinase Profiling at the MRC Protein Phosphorylation and Ubiquitylation Unit for profiling (as described in ref ([17])). Compounds were profiled against 140 kinases using a radioactive ([^33P]ATP) filter binding assay at a concentration of 1 μM. Results were obtained as inhibition of kinase activity and are listed in Supplementary Table 2.

GSK3b = GSK3b (Homo sapiens, UniProt P49841); assay: Kinase profiling (radioactive filter binding); type: biochemical; conditions: 1 uM compound
Protocol: as §1

PKD1 = PKD1 (Homo sapiens, UniProt Q15139); assay: Kinase profiling (radioactive filter binding); type: biochemical; conditions: 1 uM compound
Protocol: as §1

TTBK1 = TTBK1 (Homo sapiens, UniProt Q5TCY1); assay: Kinase profiling (radioactive filter binding); type: biochemical; conditions: 1 uM compound
Protocol: as §1

PAK6 = PAK6 (Homo sapiens, UniProt Q9NQU5); assay: Kinase profiling (radioactive filter binding); type: biochemical; conditions: 1 uM compound
Protocol: as §1

SIK3 = SIK3 (Homo sapiens, UniProt Q9Y2K2); assay: Kinase profiling (radioactive filter binding); type: biochemical; conditions: 1 uM compound
Protocol: as §1

ERK5 = ERK5 (Homo sapiens, UniProt Q13164); assay: Kinase profiling (radioactive filter binding); type: biochemical; conditions: 1 uM compound
Protocol: as §1

PDGFRA = PDGFRA (Homo sapiens, UniProt P16234); assay: Kinase profiling (radioactive filter binding); type: biochemical; conditions: 1 uM compound
Protocol: as §1

PKBa = PKBa (Homo sapiens, UniProt P31749); assay: Kinase profiling (radioactive filter binding); type: biochemical; conditions: 1 uM compound
Protocol: as §1

HIPK1 = HIPK1 (Homo sapiens, UniProt Q86Z02); assay: Kinase profiling (radioactive filter binding); type: biochemical; conditions: 1 uM compound
Protocol: as §1

MELK = MELK (Homo sapiens, UniProt Q14680); assay: Kinase profiling (radioactive filter binding); type: biochemical; conditions: 1 uM compound
Protocol: as §1

PAK2 = PAK2 (Homo sapiens, UniProt Q13177); assay: Kinase profiling (radioactive filter binding); type: biochemical; conditions: 1 uM compound
Protocol: as §1

TrkA = TrkA (Homo sapiens, UniProt P04629); assay: Kinase profiling (radioactive filter binding); type: biochemical; conditions: 1 uM compound
Protocol: as §1

PIM2 = PIM2 (Homo sapiens, UniProt Q9P1W9); assay: Kinase profiling (radioactive filter binding); type: biochemical; conditions: 1 uM compound
Protocol: as §1

CK2 = CK2 (Homo sapiens, UniProt P68400); assay: Kinase profiling (radioactive filter binding); type: biochemical; conditions: 1 uM compound
Protocol: as §1

MNK1 = MNK1 (Homo sapiens, UniProt Q9BUB5); assay: Kinase profiling (radioactive filter binding); type: biochemical; conditions: 1 uM compound
Protocol: as §1

VEG-FR = VEG-FR (Homo sapiens, UniProt P17948); assay: Kinase profiling (radioactive filter binding); type: biochemical; conditions: 1 uM compound
Protocol: as §1

ROCK 2 = ROCK 2 (Rattus norvegicus, UniProt Q62868); assay: Kinase profiling (radioactive filter binding); type: biochemical; conditions: 1 uM compound
Protocol: as §1

OSR1 = OSR1 (Homo sapiens, UniProt O95747); assay: Kinase profiling (radioactive filter binding); type: biochemical; conditions: 1 uM compound
Protocol: as §1

SRPK1 = SRPK1 (Homo sapiens, UniProt Q96SB4); assay: Kinase profiling (radioactive filter binding); type: biochemical; conditions: 1 uM compound
Protocol: as §1

IKKe = IKKe (Homo sapiens, UniProt Q14164); assay: Kinase profiling (radioactive filter binding); type: biochemical; conditions: 1 uM compound
Protocol: as §1

STK33 = STK33 (Homo sapiens, UniProt Q9BYT3); assay: Kinase profiling (radioactive filter binding); type: biochemical; conditions: 1 uM compound
Protocol: as §1

JNK2 = JNK2 (Homo sapiens, UniProt P45984); assay: Kinase profiling (radioactive filter binding); type: biochemical; conditions: 1 uM compound
Protocol: as §1

PRK2 = PRK2 (Homo sapiens, UniProt Q16513); assay: Kinase profiling (radioactive filter binding); type: biochemical; conditions: 1 uM compound
Protocol: as §1

HIPK2 = HIPK2 (Homo sapiens, UniProt Q9H2X6); assay: Kinase profiling (radioactive filter binding); type: biochemical; conditions: 1 uM compound
Protocol: as §1

p38d MAPK = p38d MAPK (Homo sapiens, UniProt O15264); assay: Kinase profiling (radioactive filter binding); type: biochemical; conditions: 1 uM compound
Protocol: as §1

AMPK (hum) = assay: Kinase profiling (radioactive filter binding); type: biochemical, human; conditions: 1 uM compound
Protocol: as §1

PHK = assay: Kinase profiling (radioactive filter binding); type: biochemical, human; conditions: 1 uM compound
Protocol: as §1

Dyrk1A = biological target: T2, Dyrk1A (Homo sapiens, UniProt Q13627); assay: Kinase profiling (radioactive filter binding); type: biochemical; conditions: for DYRK1A activity in kinase profiling: 1 uM compound; for inhibition at 1 µM: 1 μM compound, read-out: inhibitory activity toward DYRK1A in kinase panel
T2 construct: purchased Invitrogen PV3785

firefly luciferase = assay: Luciferase inhibition assay (Kinase-Glo, no kinase); type: biochemical; conditions: compound at 10 μM
Protocol: For analysis of luciferase inhibition, 10 μL of luciferase reagent (Kinase-Glo, Promega) was added to 10 μL of a mixture consisting of 1 μM ATP and 5 μM S6K and 10 μM compound (potential kinase inhibitor) in buffer A in the absence of kinase and incubated for 10 min at room temperature in a white well plate before the luminescence was read. The percentage of inhibition is equal to (luminescence in the assay without compound – luminescence in the assay with compound)/(luminescence in the assay without compound) × 100.

ROCK 2, sequence (Q62868 2-543 limits assumed): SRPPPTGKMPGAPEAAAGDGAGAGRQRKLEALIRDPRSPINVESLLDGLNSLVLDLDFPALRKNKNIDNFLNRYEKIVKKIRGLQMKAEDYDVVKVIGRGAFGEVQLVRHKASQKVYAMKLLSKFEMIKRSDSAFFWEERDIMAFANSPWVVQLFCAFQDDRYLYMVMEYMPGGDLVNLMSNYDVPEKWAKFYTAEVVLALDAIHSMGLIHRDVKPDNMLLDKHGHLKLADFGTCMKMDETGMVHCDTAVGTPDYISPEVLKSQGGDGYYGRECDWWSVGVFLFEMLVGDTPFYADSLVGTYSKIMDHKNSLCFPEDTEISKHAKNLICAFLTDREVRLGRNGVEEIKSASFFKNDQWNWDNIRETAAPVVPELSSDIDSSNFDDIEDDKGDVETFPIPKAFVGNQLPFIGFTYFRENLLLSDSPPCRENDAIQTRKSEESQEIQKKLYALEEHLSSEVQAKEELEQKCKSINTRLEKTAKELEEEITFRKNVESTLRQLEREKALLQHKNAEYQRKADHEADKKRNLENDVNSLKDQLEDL
PAK6, sequence (Q9NQU5 whole entry): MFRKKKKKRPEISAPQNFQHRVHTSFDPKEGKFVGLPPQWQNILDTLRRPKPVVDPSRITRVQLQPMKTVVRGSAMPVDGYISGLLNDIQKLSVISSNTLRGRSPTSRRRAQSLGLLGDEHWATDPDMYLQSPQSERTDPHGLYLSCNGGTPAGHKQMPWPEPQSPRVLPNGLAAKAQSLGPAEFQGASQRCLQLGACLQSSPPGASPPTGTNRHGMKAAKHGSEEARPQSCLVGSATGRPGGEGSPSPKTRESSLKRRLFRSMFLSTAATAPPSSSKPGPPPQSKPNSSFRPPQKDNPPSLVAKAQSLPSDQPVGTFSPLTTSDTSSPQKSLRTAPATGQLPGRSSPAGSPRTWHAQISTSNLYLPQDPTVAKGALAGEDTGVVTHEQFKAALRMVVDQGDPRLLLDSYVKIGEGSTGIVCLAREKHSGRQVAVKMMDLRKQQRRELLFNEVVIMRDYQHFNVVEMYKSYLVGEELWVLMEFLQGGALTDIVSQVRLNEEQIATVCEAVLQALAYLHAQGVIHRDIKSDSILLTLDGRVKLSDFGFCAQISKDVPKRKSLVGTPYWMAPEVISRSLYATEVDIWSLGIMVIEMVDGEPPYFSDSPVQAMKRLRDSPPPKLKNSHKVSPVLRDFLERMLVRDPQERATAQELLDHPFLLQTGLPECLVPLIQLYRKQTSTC
GSK3b, sequence (P49841 whole entry): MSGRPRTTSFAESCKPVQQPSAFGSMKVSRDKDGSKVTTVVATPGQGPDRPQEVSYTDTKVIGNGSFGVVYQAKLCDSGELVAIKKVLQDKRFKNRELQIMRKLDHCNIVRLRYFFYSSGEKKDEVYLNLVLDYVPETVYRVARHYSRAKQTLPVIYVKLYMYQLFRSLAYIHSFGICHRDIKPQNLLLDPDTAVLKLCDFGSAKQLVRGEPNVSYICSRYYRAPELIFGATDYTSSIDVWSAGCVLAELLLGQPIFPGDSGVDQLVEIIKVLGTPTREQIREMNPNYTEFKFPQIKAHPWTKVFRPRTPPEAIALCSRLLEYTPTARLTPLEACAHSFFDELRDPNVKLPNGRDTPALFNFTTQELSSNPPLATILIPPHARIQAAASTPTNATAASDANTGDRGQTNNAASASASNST
SIK3, sequence (Q9Y2K2 whole entry): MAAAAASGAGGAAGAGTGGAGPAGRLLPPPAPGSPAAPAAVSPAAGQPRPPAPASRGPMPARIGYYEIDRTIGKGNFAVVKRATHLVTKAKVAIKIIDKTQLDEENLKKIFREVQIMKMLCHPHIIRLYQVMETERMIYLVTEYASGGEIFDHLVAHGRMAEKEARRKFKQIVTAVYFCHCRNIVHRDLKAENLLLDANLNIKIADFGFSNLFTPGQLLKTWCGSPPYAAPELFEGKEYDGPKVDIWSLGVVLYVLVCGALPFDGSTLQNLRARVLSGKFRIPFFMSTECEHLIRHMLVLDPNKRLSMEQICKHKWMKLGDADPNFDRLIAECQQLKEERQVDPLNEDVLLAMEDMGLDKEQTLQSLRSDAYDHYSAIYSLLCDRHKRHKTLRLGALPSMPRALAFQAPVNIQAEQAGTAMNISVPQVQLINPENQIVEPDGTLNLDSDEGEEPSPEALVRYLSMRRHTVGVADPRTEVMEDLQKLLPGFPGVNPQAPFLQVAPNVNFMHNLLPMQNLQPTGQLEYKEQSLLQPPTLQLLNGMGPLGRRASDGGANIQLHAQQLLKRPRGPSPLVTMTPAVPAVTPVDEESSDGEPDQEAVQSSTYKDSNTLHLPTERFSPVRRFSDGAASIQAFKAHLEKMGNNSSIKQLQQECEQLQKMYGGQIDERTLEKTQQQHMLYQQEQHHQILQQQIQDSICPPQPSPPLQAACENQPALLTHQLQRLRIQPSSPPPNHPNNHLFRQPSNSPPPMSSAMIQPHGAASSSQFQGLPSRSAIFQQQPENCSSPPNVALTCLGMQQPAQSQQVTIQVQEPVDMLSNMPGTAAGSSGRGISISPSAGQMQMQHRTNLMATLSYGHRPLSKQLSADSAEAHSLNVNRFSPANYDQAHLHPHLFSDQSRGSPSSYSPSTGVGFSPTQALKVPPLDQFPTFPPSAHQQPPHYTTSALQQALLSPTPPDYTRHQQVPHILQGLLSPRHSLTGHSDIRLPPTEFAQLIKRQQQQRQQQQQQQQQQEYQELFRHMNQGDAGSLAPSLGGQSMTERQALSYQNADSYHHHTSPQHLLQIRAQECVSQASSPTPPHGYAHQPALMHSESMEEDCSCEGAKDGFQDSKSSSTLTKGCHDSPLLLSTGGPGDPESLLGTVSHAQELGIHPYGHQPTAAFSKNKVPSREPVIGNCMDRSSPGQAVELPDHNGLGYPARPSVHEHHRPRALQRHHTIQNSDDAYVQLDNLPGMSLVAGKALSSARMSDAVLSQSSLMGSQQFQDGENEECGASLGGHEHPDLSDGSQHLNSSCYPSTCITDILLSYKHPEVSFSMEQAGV
MELK, sequence (Q14680 whole entry): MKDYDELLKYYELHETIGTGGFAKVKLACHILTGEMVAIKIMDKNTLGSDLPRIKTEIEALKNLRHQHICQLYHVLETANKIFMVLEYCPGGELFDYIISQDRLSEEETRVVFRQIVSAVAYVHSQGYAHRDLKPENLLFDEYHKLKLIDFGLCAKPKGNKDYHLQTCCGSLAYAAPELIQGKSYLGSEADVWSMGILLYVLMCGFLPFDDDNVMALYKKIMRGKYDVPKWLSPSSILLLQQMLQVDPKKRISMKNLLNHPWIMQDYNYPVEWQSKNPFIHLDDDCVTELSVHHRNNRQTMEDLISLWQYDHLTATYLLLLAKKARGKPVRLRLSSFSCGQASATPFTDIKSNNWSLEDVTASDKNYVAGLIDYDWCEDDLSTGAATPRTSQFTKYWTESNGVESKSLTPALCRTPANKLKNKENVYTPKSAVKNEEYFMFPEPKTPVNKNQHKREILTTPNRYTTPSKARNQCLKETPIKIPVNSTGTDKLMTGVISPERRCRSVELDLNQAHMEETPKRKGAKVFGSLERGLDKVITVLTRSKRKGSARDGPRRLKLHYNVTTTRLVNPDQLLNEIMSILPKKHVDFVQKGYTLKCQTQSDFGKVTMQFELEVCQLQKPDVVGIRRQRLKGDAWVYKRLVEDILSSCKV
PAK2, sequence (Q13177 whole entry): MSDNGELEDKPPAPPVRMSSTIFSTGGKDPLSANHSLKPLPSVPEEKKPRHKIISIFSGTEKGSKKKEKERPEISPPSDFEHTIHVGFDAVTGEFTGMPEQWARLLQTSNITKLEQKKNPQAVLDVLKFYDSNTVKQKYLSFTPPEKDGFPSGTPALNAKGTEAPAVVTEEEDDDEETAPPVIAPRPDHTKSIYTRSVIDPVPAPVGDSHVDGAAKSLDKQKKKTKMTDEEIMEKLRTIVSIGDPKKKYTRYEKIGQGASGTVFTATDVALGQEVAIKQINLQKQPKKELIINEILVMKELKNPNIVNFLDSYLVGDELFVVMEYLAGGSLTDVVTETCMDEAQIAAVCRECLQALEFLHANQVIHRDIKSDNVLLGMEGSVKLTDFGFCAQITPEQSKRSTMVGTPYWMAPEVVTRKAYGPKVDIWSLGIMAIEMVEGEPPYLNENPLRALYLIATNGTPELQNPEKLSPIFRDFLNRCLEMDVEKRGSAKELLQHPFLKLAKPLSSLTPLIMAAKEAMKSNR
IKKe, sequence (Q14164 whole entry): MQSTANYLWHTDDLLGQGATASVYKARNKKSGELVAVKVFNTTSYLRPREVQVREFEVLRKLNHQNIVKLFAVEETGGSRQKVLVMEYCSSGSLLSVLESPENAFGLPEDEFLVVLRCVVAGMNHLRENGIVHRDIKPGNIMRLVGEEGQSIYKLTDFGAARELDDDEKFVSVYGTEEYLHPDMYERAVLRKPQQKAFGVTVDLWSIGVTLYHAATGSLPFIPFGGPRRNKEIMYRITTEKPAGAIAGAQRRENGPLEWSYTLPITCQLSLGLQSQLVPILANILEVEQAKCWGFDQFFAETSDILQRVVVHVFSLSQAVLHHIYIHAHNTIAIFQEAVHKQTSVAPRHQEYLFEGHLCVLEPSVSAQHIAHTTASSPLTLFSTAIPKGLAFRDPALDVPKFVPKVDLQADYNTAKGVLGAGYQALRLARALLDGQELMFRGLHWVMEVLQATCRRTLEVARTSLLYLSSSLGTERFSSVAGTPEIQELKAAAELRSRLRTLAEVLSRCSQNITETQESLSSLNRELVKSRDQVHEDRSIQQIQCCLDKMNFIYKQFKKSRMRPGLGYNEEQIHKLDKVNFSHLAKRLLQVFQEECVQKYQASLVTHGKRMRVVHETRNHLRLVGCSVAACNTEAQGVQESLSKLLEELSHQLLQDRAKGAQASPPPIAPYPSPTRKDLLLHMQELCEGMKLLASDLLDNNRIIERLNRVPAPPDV

Row | SMILES | inhibition at 10 µM [1] [%] | MLK1 activity in kinase profiling (MLK1) | GSK3b activity in kinase profiling (GSK3b) | PKD1 activity in kinase profiling (PKD1) | TTBK1 activity in kinase profiling (TTBK1) | PAK6 activity in kinase profiling (PAK6) | SIK3 activity in kinase profiling (SIK3) | ERK5 activity in kinase profiling (ERK5) | PDGFRA activity in kinase profiling (PDGFRA) | activity at 1 µM (PKBa) [%] | HIPK1 activity in kinase profiling (HIPK1) | MELK activity in kinase profiling (MELK) | PAK2 activity in kinase profiling (PAK2) | TrkA activity in kinase profiling (TrkA) | PIM2 activity in kinase profiling (PIM2) | CK2 activity in kinase profiling (CK2) | MNK1 activity in kinase profiling (MNK1) | VEG-FR activity in kinase profiling (VEG-FR) | ROCK 2 activity in kinase profiling (ROCK 2) | OSR1 activity in kinase profiling (OSR1) | further results
1 | Cc1nc2ccc3sc(NC(=O)c4ccc5ncsc5c4)nc3c2s1 [3A5, N-(2-methyl[1,3]thiazolo[5,4-e][1,3]benzothiazol-7-yl)-1,3-benzothiazole-6-carboxamide] | 68 | 73 | 102 | 96 | 101 | 96 | 84 | 39 | 91 | 123 | 105 | 69 | 92 | 93 | 78 | 105 | 109 | 108 | 68 | 101 | SRPK1 activity in kinase profiling (SRPK1): 56; IKKe activity in kinase profiling (IKKe): 107; STK33 activity in kinase profiling (STK33): 88; JNK2 activity in kinase profiling (JNK2): 100; PRK2 activity in kinase profiling (PRK2): 95; HIPK2 activity in kinase profiling (HIPK2): 96; p38d MAPK activity in kinase profiling (p38d MAPK): 105; AMPK (hum) activity in kinase profiling (AMPK (hum)): 68; PHK activity in kinase profiling (PHK): 104; DYRK1A activity in kinase profiling (Dyrk1A): 16; inhibition at 1 µM (Dyrk1A): 84%; % inhibition of luciferase (firefly luciferase): 6.7 ± 2.8%
2 | CSc1nc2ccc3nc(NC(=O)c4ccco4)sc3c2s1 [5E4, N-[7-(methylsulfanyl)[1,3]thiazolo[4,5-g][1,3]benzothiazol-2-yl]-2-furamide] | 57 | 25 | 84 | 98 | 99 | 104 | 79 | 39 | 86 | 103 | 25 | 71 | 97 | 90 | 71 | 77 | 99 | 53 | 96 | 111 | SRPK1 activity in kinase profiling (SRPK1): 81; IKKe activity in kinase profiling (IKKe): 102; STK33 activity in kinase profiling (STK33): 110; JNK2 activity in kinase profiling (JNK2): 107; PRK2 activity in kinase profiling (PRK2): 88; HIPK2 activity in kinase profiling (HIPK2): 19; p38d MAPK activity in kinase profiling (p38d MAPK): 103; AMPK (hum) activity in kinase profiling (AMPK (hum)): 84; PHK activity in kinase profiling (PHK): 110; DYRK1A activity in kinase profiling (Dyrk1A): 3; inhibition at 1 µM (Dyrk1A): 97%; % inhibition of luciferase (firefly luciferase): 29.7 ± 2.9%
